Measured values: ChEMBL document CHEMBL1201862, “PubChem BioAssay data set” (2004)
Calls of active or inactive are those of the source.

Key:
[1] = target: T1, High affinity choline transporter 1 (Homo sapiens, UniProt Q9GZV3); experiment: CHT inhibitors, dose response, cell-based, 5-point CRC, membrane potential dye (AID 504840); format: functional
T1 sequence (Q9GZV3 whole entry): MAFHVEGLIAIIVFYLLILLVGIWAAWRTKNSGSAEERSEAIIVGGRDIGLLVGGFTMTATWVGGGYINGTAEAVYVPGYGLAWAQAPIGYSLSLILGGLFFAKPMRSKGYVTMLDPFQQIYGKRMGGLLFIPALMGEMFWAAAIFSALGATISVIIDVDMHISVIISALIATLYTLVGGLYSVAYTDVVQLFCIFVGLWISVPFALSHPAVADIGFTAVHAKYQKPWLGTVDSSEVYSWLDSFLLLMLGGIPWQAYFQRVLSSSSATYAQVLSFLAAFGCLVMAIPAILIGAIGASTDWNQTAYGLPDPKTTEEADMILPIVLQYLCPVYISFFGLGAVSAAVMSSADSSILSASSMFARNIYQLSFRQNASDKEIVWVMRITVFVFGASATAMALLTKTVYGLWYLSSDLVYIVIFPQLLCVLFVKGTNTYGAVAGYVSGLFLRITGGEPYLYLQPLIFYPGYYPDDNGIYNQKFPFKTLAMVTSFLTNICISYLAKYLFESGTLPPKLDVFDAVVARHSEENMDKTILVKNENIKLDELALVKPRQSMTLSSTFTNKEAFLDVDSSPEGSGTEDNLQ

[2] = target: T1, High affinity choline transporter 1; experiment: CHT inhibitors, dose response, cell-based, 10-point CRC, membrane potential dye (AID 588401); format: functional;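 also: membrane potential dye fluorescence of choline-evoked depolarization via CHT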
[3] = target: 72 kDa type IV collagenase (Homo sapiens, UniProt P08253); experiment: Dose Response validation of uHTS RPN11 inhibitor hits using a MMP-2 Fluorescence assay.; format: functional
Prothrombin = Prothrombin (Bos taurus, UniProt P00735); experiment: thrombin inhibition, dose response, biochemical, fluorescence polarization, uHTS hits (AID 602369); format: functional
[4] = target: 26S proteasome non-ATPase regulatory subunit 14 (Homo sapiens, UniProt O00487); experiment: inhibition of proteasome subunit RPN11 – biochemical, fluorescence polarization, uHTS hits, confirmation (AID 602368); format: functional
[5] = target: Potassium voltage-gated channel subfamily KQT member 2 (Rattus norvegicus, UniProt O88943); experiment: KCNQ2 potassium channel inhibitors, dose response, cell-based, automated electrophysiology, set II, rat KCNQ2 (AID 588637); format: functional
Escherichia coli [6] = experiment: microbe, parasite or virus in culture
[7] = target: Sentrin-specific protease 6 (Homo sapiens, UniProt Q9GZR1); format: functional;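 also: Luminescence-based dose-response confirmatory assay of SENP6 inhibition, following up an ultra-high-throughput screen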
[8] = target: Sentrin-specific protease 7 (Homo sapiens, UniProt Q9BQF6); format: functional;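 also: Luminescence-based dose-response confirmation of ultra-high-throughput screening hits, measuring inhibition of SENP7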
Caspase-3 = target: T2, Caspase-3 (Homo sapiens, UniProt P42574); format: functional;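 also: Dose-response selectivity test against caspase-3 for candidate inhibitors of sentrin-specific proteases (SENPs)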
T2 sequence (P42574 whole entry): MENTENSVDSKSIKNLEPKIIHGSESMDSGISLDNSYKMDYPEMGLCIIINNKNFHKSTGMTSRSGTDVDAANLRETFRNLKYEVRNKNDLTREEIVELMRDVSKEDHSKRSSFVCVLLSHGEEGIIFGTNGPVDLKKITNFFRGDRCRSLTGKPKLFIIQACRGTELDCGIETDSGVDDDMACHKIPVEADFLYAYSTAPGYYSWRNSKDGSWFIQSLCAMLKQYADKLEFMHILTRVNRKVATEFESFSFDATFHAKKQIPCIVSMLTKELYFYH

[9] = target: T3, Sentrin-specific protease 8 (Homo sapiens, UniProt Q96LD8); format: functional;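 also: luminescence read-out of SENP8 inhibition, dose-response confirmation following an ultra-high-throughput screen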
T3 sequence (Q96LD8 whole entry): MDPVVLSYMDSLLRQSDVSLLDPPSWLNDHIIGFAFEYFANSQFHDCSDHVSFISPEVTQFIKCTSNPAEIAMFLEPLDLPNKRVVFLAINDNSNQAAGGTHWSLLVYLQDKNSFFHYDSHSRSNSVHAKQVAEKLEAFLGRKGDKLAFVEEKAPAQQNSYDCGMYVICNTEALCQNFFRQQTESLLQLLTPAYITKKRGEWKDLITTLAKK

[10] = inhibitors of clade B AD8 Env fusion, dose response, cell-based, cherry-pick (AID 652062); format: functional;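 also: luciferase signal from cell-cell fusion driven by HIV-1 clade B AD8 Env; potency is for inhibitors of fusion seen as a drop in luminescence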
Cysteine protease ATG4B = Cysteine protease ATG4B (Homo sapiens, UniProt Q9Y4P1); format: functional;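 also: Fluorescence-based dose-response confirmation assay measuring inhibition of ATG4B activity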
[11] = HIV Env cell-cell fusion inhibitors, dose response, HIV entry, plate reader, dry powder (AID 687023); format: functional, cell-based
[12] = inhibitors of HIV Env-driven cell fusion, dose response, cherry-pick (AID 652057); format: functional, cell-based
[13] = ZM109 Env clade C HIV-1 fusion inhibitors, dose response, HeLa effector, CEM target cells, luciferase, cherry-pick (AID 652058); format: functional, cell-based
[14] = CEM21 cell cytotoxicity, dose response, cytotoxicity control, plate reader, dry powder (AID 687026); format: functional, cell-based
Phospholipase A2 = Phospholipase A2 (Homo sapiens, UniProt P04054); format: functional;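 also: confirmatory dose-response counterscreen on phospholipase A2, testing hits that came from an ultra-high-throughput screen for ATG4B inhibitors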
[15] = target: 5-hydroxytryptamine receptor 5A (Homo sapiens, UniProt P47898); experiment: Counterscreen for agonists of OPRM1-OPRD1 heterodimerization: luminescence-based cell-based high throughput dose response assay to identify agonists of 5-hydroxytryptamine (serotonin) 5A receptor (HTR5A). [Related pubchem assays (depositor defined):AID504326, AID504355, AID504692, AID504904, AID504905]; format: functional
[16] = target: T4, Corticotropin-releasing factor receptor 2/Corticotropin-releasing factor-binding protein (Homo sapiens, UniProt P24387+Q13324); experiment: activators of CRF receptor 2 with binding protein – uHTS hits, confirmation (AID 602473); format: functional; details: read-out: EC50_Mean
T4 sequence (Q13324 whole entry): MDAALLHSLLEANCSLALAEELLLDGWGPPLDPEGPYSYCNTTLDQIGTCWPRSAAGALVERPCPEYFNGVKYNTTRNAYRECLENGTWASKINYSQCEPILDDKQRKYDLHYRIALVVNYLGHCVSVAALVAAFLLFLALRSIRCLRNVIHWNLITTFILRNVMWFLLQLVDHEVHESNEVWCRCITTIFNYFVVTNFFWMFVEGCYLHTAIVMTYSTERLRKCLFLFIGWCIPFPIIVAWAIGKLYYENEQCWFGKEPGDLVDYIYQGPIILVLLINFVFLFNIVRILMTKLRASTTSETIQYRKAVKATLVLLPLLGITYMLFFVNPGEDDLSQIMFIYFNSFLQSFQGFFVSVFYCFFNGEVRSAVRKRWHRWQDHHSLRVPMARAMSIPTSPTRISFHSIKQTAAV
T4 sequence (P24387 whole entry): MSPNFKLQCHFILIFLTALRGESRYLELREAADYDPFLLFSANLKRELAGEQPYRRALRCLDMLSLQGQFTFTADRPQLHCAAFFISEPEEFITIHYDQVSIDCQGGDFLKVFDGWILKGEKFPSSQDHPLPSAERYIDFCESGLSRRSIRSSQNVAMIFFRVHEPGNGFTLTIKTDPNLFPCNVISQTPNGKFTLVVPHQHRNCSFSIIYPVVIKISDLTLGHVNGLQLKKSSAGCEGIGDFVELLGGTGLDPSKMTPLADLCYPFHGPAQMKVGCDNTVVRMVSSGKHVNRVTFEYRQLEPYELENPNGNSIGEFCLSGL

Mu-type opioid receptor = Mu-type opioid receptor (Homo sapiens, UniProt P35372); experiment: (§1) Counterscreen for agonists of heterodimerization of the mu 1 (OPRM1) and delta 1 (OPRD1) opioid receptors: Luminescence-based cell-based high throughput dose response assay to identify agonists of OPRM1 homodimerization.; format: functional
[17] = target: DNA (cytosine-5)-methyltransferase 1 (Homo sapiens, UniProt P26358); experiment: DNMT1 methyltransferase inhibitors, confirmation, biochemical, fluorescent molecular beacon (AID 602386); format: functional
[18] = target: Delta-type opioid receptor (Homo sapiens, UniProt P41143); experiment: as §1, with “of OPRD1” for “of OPRM1”, “homodimerization. [Related pubchem assays (depositor defined):AID504326, AID504355, AID504692, AID504904, AID504905]” for “homodimerization.”; format: functional
[19] = Luminescence Cell-Based Dose Retest to Confirm Inhibitors of Cancer Stem Cells. [Related pubchem assays (depositor defined):AID2717, AID2721]; format: functional; details: Homo sapiens
Escherichia coli [20] = experiment: microbe, parasite or virus in culture; remark: listed apart in the source
[21] = target: Ras and Rab interactor 1/Tyrosine-protein kinase ABL1 (Homo sapiens, UniProt P00519+Q13671); format: functional;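 also: biochemical TR-FRET dose-response test measuring inhibition of binding between Rin1 and Abl proteins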
[22] = target: Apoptotic protease-activating factor 1 (Homo sapiens, UniProt O14727); experiment: SAR analysis of small molecule Activators of Apaf-1 in a Fluorescent assay.; format: functional; details: read-out: EC50_Mean;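 also: caspase-3 cleavage of fluorogenic Rh110 DEVD substrate downstream of apoptosome activation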
[23] = growth suppression of beta-catenin-knockout colon cells, dose response, cell-based, HCT116, human colon tumor (AID 1045); format: functional;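 also: HCT116 colon tumor cells with beta catenin knocked out; cells exposed to compound for 60 hours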
[24] = growth suppression of PTEN-null colon cells, dose response, cell-based, HCT116 PTEN knockout (AID 1047); format: functional;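 also: HCT116 colon tumor cells with PTEN knocked out; cells exposed to compound for 60 hours before readout; potency for loss of cell viability measured by luminescence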

Delta-type opioid receptor, sequence (P41143 whole entry): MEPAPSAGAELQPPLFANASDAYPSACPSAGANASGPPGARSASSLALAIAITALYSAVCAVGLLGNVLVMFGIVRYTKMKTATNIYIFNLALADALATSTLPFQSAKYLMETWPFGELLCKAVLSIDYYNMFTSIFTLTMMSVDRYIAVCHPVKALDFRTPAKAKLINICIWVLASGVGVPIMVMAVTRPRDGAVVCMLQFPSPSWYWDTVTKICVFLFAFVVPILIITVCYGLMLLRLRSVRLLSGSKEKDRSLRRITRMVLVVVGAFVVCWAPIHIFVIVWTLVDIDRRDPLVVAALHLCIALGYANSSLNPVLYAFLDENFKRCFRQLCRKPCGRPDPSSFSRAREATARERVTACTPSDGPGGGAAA
Sentrin-specific protease 7, sequence (Q9BQF6 whole entry): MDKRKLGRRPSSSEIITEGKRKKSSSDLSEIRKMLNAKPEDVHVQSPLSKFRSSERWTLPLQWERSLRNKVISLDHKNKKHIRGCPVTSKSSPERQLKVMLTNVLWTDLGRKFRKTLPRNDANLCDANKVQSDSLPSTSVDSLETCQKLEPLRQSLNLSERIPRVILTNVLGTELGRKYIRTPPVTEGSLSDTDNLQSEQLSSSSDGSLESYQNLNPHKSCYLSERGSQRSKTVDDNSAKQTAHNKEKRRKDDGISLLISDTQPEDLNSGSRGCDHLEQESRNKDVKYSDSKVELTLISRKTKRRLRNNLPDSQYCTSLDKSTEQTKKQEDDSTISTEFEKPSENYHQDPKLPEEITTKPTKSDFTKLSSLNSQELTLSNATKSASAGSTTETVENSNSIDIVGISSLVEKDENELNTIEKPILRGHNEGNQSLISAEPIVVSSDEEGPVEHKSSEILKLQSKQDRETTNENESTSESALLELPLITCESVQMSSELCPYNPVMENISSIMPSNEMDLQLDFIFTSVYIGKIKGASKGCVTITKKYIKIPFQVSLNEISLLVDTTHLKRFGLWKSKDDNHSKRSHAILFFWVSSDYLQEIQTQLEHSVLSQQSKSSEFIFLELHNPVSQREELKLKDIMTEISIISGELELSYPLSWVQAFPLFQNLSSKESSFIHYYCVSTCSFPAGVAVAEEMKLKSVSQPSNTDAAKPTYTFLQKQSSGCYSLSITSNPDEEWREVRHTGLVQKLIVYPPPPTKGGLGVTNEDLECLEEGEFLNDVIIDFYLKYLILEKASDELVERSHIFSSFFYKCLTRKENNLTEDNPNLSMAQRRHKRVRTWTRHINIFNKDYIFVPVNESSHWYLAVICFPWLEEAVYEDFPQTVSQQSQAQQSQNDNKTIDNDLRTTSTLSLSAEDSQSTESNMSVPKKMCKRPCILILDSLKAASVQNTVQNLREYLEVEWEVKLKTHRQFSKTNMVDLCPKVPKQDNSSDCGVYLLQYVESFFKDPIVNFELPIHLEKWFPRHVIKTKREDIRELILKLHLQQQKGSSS
5-hydroxytryptamine receptor 5A, sequence (P47898 whole entry): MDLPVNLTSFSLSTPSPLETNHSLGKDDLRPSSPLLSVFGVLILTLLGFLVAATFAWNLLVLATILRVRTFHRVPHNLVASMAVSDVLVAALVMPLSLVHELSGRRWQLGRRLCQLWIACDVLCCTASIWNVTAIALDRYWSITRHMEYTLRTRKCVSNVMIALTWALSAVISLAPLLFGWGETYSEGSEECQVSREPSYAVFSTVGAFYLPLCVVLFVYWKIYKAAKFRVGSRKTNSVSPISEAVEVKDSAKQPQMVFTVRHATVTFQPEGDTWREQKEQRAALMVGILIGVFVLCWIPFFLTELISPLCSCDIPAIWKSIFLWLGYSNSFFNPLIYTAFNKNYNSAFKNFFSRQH
Sentrin-specific protease 6, sequence (Q9GZR1 whole entry): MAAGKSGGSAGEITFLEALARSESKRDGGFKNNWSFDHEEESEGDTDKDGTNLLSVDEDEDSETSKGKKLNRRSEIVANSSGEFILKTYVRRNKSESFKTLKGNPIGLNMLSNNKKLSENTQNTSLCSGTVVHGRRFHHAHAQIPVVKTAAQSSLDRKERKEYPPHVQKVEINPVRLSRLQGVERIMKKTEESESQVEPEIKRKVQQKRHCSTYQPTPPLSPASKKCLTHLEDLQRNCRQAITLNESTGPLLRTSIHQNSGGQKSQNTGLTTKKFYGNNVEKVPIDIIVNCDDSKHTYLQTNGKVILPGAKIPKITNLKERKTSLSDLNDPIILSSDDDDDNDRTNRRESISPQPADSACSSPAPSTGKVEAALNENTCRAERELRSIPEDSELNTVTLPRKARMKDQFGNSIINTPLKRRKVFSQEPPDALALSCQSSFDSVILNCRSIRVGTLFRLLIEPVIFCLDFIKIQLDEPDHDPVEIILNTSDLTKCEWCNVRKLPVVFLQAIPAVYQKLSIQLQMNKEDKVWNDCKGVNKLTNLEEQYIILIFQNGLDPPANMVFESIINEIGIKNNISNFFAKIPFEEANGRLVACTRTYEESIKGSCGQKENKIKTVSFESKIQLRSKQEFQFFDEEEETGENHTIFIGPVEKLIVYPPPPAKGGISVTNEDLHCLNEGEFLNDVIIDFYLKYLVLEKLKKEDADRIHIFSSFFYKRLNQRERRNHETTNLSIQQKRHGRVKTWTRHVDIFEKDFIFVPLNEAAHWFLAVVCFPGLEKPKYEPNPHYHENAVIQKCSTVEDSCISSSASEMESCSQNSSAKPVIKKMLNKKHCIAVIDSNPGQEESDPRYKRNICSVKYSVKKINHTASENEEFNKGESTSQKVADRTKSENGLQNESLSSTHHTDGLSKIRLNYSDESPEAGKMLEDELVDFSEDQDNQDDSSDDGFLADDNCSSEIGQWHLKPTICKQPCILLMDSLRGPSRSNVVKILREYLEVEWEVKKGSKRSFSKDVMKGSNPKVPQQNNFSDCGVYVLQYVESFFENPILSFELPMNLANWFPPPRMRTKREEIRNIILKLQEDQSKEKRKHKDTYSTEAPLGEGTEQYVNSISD
Phospholipase A2, sequence (P04054 whole entry): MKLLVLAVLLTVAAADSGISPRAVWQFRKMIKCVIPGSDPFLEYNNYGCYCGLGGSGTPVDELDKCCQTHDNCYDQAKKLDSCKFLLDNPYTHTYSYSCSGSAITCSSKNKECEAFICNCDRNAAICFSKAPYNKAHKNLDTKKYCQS
72 kDa type IV collagenase, sequence (P08253 whole entry): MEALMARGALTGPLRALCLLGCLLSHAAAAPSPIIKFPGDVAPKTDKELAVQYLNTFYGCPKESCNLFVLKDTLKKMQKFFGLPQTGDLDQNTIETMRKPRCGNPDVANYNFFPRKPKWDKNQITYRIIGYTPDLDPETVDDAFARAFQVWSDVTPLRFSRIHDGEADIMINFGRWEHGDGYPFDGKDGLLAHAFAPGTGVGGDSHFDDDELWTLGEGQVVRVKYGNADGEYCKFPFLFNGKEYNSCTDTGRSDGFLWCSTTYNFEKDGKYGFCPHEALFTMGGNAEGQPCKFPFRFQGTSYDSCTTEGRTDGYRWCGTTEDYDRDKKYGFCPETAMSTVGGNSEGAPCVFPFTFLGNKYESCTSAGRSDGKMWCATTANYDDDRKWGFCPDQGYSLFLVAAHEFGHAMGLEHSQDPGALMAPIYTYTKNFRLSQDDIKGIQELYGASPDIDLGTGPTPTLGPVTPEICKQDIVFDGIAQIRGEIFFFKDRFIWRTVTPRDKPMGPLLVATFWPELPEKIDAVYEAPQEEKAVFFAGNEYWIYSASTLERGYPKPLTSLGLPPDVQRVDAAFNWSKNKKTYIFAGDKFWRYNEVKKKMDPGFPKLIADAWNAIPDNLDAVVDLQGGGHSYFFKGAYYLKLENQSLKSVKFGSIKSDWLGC
Cysteine protease ATG4B, sequence (Q9Y4P1 whole entry, the tested form may be a part): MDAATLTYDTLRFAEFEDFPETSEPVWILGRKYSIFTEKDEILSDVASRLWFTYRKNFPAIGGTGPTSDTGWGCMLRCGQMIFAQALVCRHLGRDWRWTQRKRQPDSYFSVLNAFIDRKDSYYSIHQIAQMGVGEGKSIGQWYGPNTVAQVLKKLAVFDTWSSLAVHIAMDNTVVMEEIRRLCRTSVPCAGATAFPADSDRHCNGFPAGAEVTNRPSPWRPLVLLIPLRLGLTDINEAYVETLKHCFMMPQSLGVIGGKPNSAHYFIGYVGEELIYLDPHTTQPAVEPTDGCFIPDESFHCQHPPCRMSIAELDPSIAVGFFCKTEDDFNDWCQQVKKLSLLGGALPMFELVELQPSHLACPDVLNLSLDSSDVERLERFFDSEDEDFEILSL
Mu-type opioid receptor, sequence (P35372 whole entry): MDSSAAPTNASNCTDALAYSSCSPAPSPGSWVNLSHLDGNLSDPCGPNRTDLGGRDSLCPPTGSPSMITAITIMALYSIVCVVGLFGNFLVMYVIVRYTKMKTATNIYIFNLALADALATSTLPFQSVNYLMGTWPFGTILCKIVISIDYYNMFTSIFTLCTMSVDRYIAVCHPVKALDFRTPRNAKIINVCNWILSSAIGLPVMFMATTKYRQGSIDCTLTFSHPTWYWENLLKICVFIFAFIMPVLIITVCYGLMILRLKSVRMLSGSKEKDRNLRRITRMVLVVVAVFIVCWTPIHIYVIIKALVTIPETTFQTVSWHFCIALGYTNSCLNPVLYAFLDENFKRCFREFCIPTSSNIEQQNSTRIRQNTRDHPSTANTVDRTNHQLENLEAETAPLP
26S proteasome non-ATPase regulatory subunit 14, sequence (O00487 whole entry): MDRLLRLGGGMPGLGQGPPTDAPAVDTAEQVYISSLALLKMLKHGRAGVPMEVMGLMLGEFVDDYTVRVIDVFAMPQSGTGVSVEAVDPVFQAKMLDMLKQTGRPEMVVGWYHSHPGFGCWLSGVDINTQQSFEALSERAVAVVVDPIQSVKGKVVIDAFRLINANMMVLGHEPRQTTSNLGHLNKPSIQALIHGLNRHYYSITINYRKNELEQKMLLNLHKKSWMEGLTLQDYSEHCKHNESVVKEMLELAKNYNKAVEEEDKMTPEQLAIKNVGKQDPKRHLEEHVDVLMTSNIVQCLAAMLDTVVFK

CCN(CC)CCCNC(=O)c1cn(CC)c2ccc(S(=O)(=O)N3CCc4ccccc4C3)cc2c1=O
IC50 [1]: 4.17 µM (active) | IC50 [2]: 2.67 µM (active)

COC(=O)c1sc2nc(CSc3ccc(Br)cc3)[nH]c(=O)c2c1C
IC50 [3]: > 100 µM (inactive) | IC50 (Prothrombin): 30 µM (active) | IC50 [4]: 26.6 µM (active)

CN(C)S(=O)(=O)c1ccc(N2CCCC2)c(C(=O)NNC(=O)c2ccc(Br)cc2)c1
IC50 [5]: 3.72 µM (active)

CN(C/C=C/c1ccccc1[N+](=O)[O-])Cc1ccccc1
AC50 (Escherichia coli [6]): 42.7 µM (active)

Cc1ccccc1-c1nnc(SCc2ccccc2F)o1
IC50 [7]: 21.9 µM (active) | IC50 [8]: 6.14 µM (active) | IC50 (Caspase-3): 29.1 µM (active) | IC50 [9]: 45.1 µM (active)

Cc1nnsc1NC(=O)OCc1ccccc1Cl
IC50 [7]: 45.6 µM (active) | IC50 [8]: 13 µM (active) | IC50 (Caspase-3): 21.4 µM (active) | IC50 [9]: 52.7 µM (active)

CCOc1ccc(C(=O)C2CCN(CC(=O)Nc3ccccc3N3CCOCC3)CC2)cc1
AC50 [10]: 0.94 µM (active) | IC50 (Cysteine protease ATG4B): 13.2 µM (active) | AC50 [11]: 10.4 µM (active) | AC50 [12]: 3.34 µM (active) | AC50 [13]: 10.8 µM (active) | AC50 [14]: > 70 µM (inactive) | IC50 (Phospholipase A2): 11.9 µM (active)

COc1ccc(NS(=O)(=O)c2ccc(O)c(NC(=O)c3cc4c(C)nn(-c5ccc(F)cc5)c4s3)c2)cc1
EC50 [15]: > 92.5 µM (inactive) | EC50 [16]: > 53 µM (inactive) | EC50 (Mu-type opioid receptor): > 92.5 µM (inactive) | IC50 [17]: 6.92 µM (active) | EC50 [18]: > 92.5 µM (inactive) | AC50 [19]: 2.11 µM (active)

CCN(CC)CCCNC(=O)c1ccccc1NC(=O)C1=CSCCO1
IC50 [1]: 4.48 µM (active) | IC50 [2]: 3.57 µM (active)

CN(C)CCCN/C=C1\C(=O)NC(=O)N(CCc2ccccc2)C1=O
IC50 [3]: > 100 µM (inactive) | IC50 (Prothrombin): 35.1 µM (active) | IC50 [4]: 28.7 µM (active)

CCc1ccccc1NC(=O)CNC1CCCCC1.[O-][Cl+3]([O-])([O-])O
AC50 (Escherichia coli [6]): 76.7 µM (active) | AC50 (Escherichia coli [20]): 22.6 µM (active)

CCOC(=O)CCCCCC(=O)Nc1ccc2c(c1)CC(=O)N([C@H](C)CO)C[C@@H](C)[C@H](CN(C)Cc1ccc3c(c1)OCO3)O2
IC50 [21]: 30.8 µM (inactive)

CCCCCCC1CC(Cc2c(C)[nH]c3ccccc23)C(=O)O1 (centres undefined)
EC50 [22]: > 100 µM (inactive)

COc1ccc2[nH]c3c(=O)n(/N=C/[C@H]4C(C)C=C(C)CC4C)c(=O)[nH]c3c2c1 (some centres undefined)
EC50 [15]: > 92.5 µM (inactive) | EC50 (Mu-type opioid receptor): > 92.5 µM (inactive) | EC50 [18]: > 92.5 µM (inactive) | EC50 [23]: 35.4 µM (active) | EC50 [24]: 30.5 µM (active)

O=C(O)c1cc(N/N=C2/CC(c3ccccc3)Oc3ccccc32)ccc1Cl (centres undefined)
IC50 (Cysteine protease ATG4B): 7.53 µM (active) | IC50 (Phospholipase A2): 7.77 µM (active)
